Values of other authors as cited in patent US10392388B2, “Meropenem derivatives and uses thereof” (Kala Pharmaceuticals, Inc., priority 2013, dated 2019).

MIC90 (Pseudomonas aeruginosa): about 8 μg/mL
water solubility: > 1000 µg/mL
Structure (SMILES): C[C@@H](O)[C@H]1C(=O)N2C(C(=O)O)=C(S[C@@H]3CN[C@H](C(=O)N(C)C)C3)[C@H](C)[C@H]12 [Meropenem, meropenem]
